The target in one assay is T1, human (His)6DGAT1 (Homo sapiens, UniProt O75907).
T1 construct: made in house; host or cells: Sf9 insect cells (membrane preparation)
T1 sequence (O75907 1-488): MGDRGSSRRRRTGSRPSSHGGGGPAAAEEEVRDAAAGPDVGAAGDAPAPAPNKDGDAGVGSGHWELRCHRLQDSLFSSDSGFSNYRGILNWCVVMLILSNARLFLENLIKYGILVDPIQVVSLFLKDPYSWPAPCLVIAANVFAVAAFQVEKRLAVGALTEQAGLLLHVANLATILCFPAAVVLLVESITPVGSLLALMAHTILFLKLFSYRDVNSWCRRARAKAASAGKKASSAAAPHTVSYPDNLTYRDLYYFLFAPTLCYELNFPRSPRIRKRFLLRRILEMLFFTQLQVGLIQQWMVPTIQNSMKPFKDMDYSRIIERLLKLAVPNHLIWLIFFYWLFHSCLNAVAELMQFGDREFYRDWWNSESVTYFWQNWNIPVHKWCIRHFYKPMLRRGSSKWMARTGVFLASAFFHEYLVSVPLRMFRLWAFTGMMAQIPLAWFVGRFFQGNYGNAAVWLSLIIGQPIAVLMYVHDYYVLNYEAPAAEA
The assay is described as follows: DGAT1 Inhibition Assay. As to conditions: membrane preparation from Sf9 cells overexpressing human (His)6DGAT1; LC/MS/MS readout. Format: biochemical. The protocol:
The enzyme preparation used in this assay is a membrane preparation from Sf9 cells overexpressing human (His)6DGAT1. During all steps samples were chilled to 4° C. Sf9 cells expressing human (His)6DGAT1 were thawed at room temperature and re-suspended at a 10:1 ratio (mL buffer/g of cells) in 50 mM HEPES, 1× Complete Protease Inhibitor, pH 7.5. The re-suspended pellet was homogenized for 1 min using a Brinkman PT 10/35 homogenizer with a 20 mm generator. Cells were lysed using Avestin Emulsiflex (chilled to 4° C.) at 10000-15000 psi. Lysate was centrifuged at 100,000×g for 1 h at 4° C. Supernatant was removed and pellets were re-suspended in 50 mM HEPES, 1× Complete Protease Inhibitor, pH 7.5 at ⅙ the volume of supernatant. Re-suspended pellets were pooled and homogenized with 10 strokes of a Glas-Col motor driven teflon pestle on setting 70. The protein concentration of the membrane preparation was quantified using BCA protein assay with 1% SDS. The membrane preparation was aliquoted, frozen on dry ice, and stored at −80° C.
For 50 mL, 25 mL of 0.2 M HEPES stock buffer, 0.5 mL of 1 M MgCl2 ([…]), and 24.5 mL of milli-Q H2O are added to the 55 mL Wheaton Potter-Elvehjem homogenizer. Enzyme preparation (0.1 mL) is added to buffer and the mixture is homogenized with 5 strokes on ice using the Glas-Col variable speed homogenizer system on setting 70.
For 50 mL, 0.5 mL 10 mM diolein is added to 9.5 mL of EtOH in a 50 mL Falcon screw cap conical centrifuge tube. Five mL of 10 mM sodium acetate pH 4.5 is added followed by 0.5 mL of 10 mM oleoyl-CoA. Finally, the remaining 4.5 mL of 10 mM sodium acetate pH 4.5 is added followed by 30 mL of milli-Q H20. The solution should be gently agitated by hand to induce mixing. The final concentrations of EtOH and sodium acetate are 20% and 2 mM, respectively.
Dry compounds are dissolved in the appropriate volume of DMSO to a final concentration of 10 mM. […] All dilutions are performed in DMSO in a Greiner 384-well microplate. • 1. 2 μL of compound in DMSO is added to the appropriate wells. […] 25 μL of enzyme mix is added to all wells and plate(s) are incubated for 10 min at RT. • 3. […] Plate(s) are vortexed using Troemner multi-tube vortexer (setting 7 for 10 sec). • 4. 25 μL of substrate mix is added to all wells. Plate(s) are vortexed using Troemner multi-tube vortexer (setting 7 for 10 sec). Plate(s) are incubated for 30 min at RT. • 5. 10 μL of 20% acetic acid quench is added to all wells. Plate(s) are vortexed using Troemner multi-tube vortexer (setting 7 for 10 sec). • 6. 50 μL of 1-butanol w/ glyceryl tripalmitoleate internal standard is added to all wells. • 7. Plate(s) are sealed with super pierce strong plate sealer using the thermo-sealer. • 8. Plate(s) are vortexed using Troemner multi-tube vortexer (setting 10 for 5 min). • 9. Plate(s) are centrifuged at 162×g (1000 rpm for GH-3.8 rotor) for 5 min using Beckman GS-6R tabletop centrifuge.
Where indicated, tripalmitolein was used as an internal standard to control for instrument variation.
Column: Thermo Betabasic 4, 2.1×20 mm
Solvent: 10 mM Ammonium Formate, 0.1% Formic Acid, 2% water, 98% Methanol
Isocratic run 0.5 ml per minute
Data is converted to % inhibition prior to curve fitting using the following equation: […]

In the next assay the target is T2, DGAT1 in C2C12 cells (Mus musculus, UniProt Q9Z2A7).
T2 construct: endogenous in cells; host or cells: C2C12 mouse skeletal muscle cells
T2 sequence (Q9Z2A7 1-498): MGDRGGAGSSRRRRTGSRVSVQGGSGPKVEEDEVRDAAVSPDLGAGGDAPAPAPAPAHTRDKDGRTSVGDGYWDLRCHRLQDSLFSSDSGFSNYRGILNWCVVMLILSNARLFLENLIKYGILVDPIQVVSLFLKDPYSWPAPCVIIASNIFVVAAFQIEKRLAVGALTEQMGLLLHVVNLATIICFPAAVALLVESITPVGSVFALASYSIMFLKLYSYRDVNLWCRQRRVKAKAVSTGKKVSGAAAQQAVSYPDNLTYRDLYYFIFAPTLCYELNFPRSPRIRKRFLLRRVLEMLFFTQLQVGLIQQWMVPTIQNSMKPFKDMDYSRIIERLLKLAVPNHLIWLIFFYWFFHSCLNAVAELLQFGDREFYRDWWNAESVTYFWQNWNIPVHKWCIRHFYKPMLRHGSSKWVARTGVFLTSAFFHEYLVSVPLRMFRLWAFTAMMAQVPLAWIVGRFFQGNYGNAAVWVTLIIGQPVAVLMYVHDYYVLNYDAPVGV
The assay is described as follows: Cellular assay to measure activity of DGAT1 inhibitors in mammalian cells (C2C12). Format: cell-based. As to conditions: C2C12 mouse skeletal muscle cells, 250 μM oleate, 2 h, LC/MS readout. The protocol:
C2C12 cells are an immortal mouse skeletal muscle cell line showing an 8-fold enrichment form DGAT1 versus DGAT2. C2C12 cells were routinely cultured in 150 cm2 flasks with DMEM (25 mM glucose) containing 10% FBS, 4 m M L-glutamine, 100 U/ml penicillin and 100 μg/ml streptomycin (30 ml per flask), at 37° C., 5% CO2 and 95% humidity. All studies were performed on cells at passage 10 or less.
C2C12 cells were seeded in 96-well plates in DMEM containing […] glucose and 10% FBS, 18 h (at 37° C.) prior to assay (all wells of the plate are used). […] Compounds were added at 1:3 dilution, 11 points and DMSO control, the starting concentration was usually 40 μM. Each point was dosed in quadruplicate allowing 2 compounds to be dosed per plate. The medium was removed at the end of the incubation and 200 μl/well of 1-butanol added. The 1-butanol contained an internal standard, tripalmitolein (2 μM). The plates were sealed with an adhesive plate sealer and left at room temperature for at least 30 min, then spun down at 209×g for 5 min.
Butanolic extracts were transferred to 384-well LC-MS plates (80 μl/well) and the plate heatsealed with a foil plate sealer. The 384-well plates containing sample were spun down at 209×g for 5 min prior to loading on the LC-MS.
Where indicated, tripalmitolein was used as an internal standard to control for instrument variation. HPLC conditions as above.

Molecules are shown by their SMILES.

As usually defined, the IC50 is the concentration that gives 50% inhibition. A lower IC50 goes with higher potency. In the case of `O=C(O)CC12CCC(c3ccc(-c4ccc(Nc5nnc(C6CCC6)o5)cc4)cc3)(CC1)OC2` [Example 19, {1-[4′-(5-cyclobutyl-[1,3,4]oxadiazol-2-ylamino)-biphenyl-4-yl]-2-oxa-bicyclo[2.2.2]oct-4-yl}-acetic acid], the half-maximal inhibitory concentration (IC50) against human (His)6DGAT1 turned out to be 260 nM; against DGAT1 in C2C12 cells, 6 nM.
As for `CC(C)(C)c1nnc(Nc2ccc(-c3ccc(C45CCC(CC(=O)O)(CC4)CO5)cc3)cc2)o1` [Example 20, 2-(1-(4′-((5-(tert-butyl)-1,3,4-oxadiazol-2-yl)amino)-[1,1′-biphenyl]-4-yl)-2-oxabicyclo[2.2.2]octan-4-yl)acetic acid], the figures for the half-inhibitory concentration (IC50) against human (His)6DGAT1 and on DGAT1 in C2C12 cells were 120 nM and 16 nM, respectively.
Turning to `O=C(O)CC12CCC(c3ccc(-c4ccc(Nc5nnc(C6CCC6)o5)cn4)cc3)(CC1)OC2` [Example 21, (1-{4-[5-(5-cyclobutyl-[1,3,4]oxadiazol-2-ylamino)-pyridin-2-yl]-phenyl}-2-oxa-bicyclo[2.2.2]oct-4-yl)-acetic acid], the IC50 against human (His)6DGAT1 is 360 nM; against DGAT1 in C2C12 cells, 944 nM.
For `CC(C)(C)c1nnc(Nc2ccc(-c3ccc(C45CCC(CC(=O)O)(CC4)O5)cc3)cc2)o1` [Example 22, 2-(4-(4′-((5-(tert-butyl)-1,3,4-oxadiazol-2-yl)amino)-[1,1′-biphenyl]-4-yl)-7-oxabicyclo[2.2.1]heptan-1-yl)acetic acid], in that order: 1700 nM and 296 nM.
The like results for `CC(C)(C)c1nnc(Nc2ccc(-c3ccc(C45CCC(CCC(=O)O)(CC4)O5)cc3)cc2)o1` [Example 23, 3-(4-(4′-((5-(tert-butyl)-1,3,4-oxadiazol-2-yl)amino)-[1,1′-biphenyl]-4-yl)-7-oxabicyclo[2.2.1]heptan-1-yl)propanoic acid] were, in that order, 84 nM and 267 nM.
